Laboratory results taken from the NIST ThermoML archive (doi:10.1007/s10765-006-0056-z).
Numbers after ± are expanded uncertainties.

Assay: molar heat capacity at constant volume; xn = mol fraction of the nth substance listed
Settings: Fluid (supercritical or subcritical phases), Isochoric Heat Capacity Apparatus

SMILES: CCCCCCCCCC [decane] + O=C=O
- molar heat capacity at constant volume (485.62 K, Mass density=375 kg/m3, x1 = 0.178): 481.74 ± 9.7 J/K/mol
- molar heat capacity at constant volume (486.19 K, Mass density=374.7 kg/m3, x1 = 0.095): 337.46 ± 6.8 J/K/mol
- molar heat capacity at constant volume (486.48 K, Mass density=201.8 kg/m3, x1 = 0.095): 412.09 ± 8.3 J/K/mol
- molar heat capacity at constant volume (486.76 K, Mass density=375 kg/m3, x1 = 0.178): 484.88 ± 9.7 J/K/mol
- molar heat capacity at constant volume (486.96 K, Mass density=131.5 kg/m3, x1 = 0.095): 529.99 ± 11 J/K/mol
- molar heat capacity at constant volume (486.96 K, Mass density=201.8 kg/m3, x1 = 0.095): 409.43 ± 8.2 J/K/mol
- molar heat capacity at constant volume (487.15 K, Mass density=155 kg/m3, x1 = 0.095): 472.85 ± 9.4 J/K/mol
- molar heat capacity at constant volume (487.15 K, Mass density=201.8 kg/m3, x1 = 0.095): 398.22 ± 7.9 J/K/mol
- molar heat capacity at constant volume (487.34 K, Mass density=155 kg/m3, x1 = 0.095): 461.86 ± 9.2 J/K/mol
- molar heat capacity at constant volume (487.53 K, Mass density=155 kg/m3, x1 = 0.095): 453.38 ± 9.1 J/K/mol
- molar heat capacity at constant volume (487.72 K, Mass density=155 kg/m3, x1 = 0.095): 442.23 ± 8.9 J/K/mol
- molar heat capacity at constant volume (487.96 K, Mass density=155 kg/m3, x1 = 0.095): 446.71 ± 9 J/K/mol
- molar heat capacity at constant volume (488.19 K, Mass density=155 kg/m3, x1 = 0.095): 447.14 ± 9 J/K/mol
- molar heat capacity at constant volume (488.49 K, Mass density=176.7 kg/m3, x1 = 0.095): 436.9 ± 8.7 J/K/mol
- molar heat capacity at constant volume (488.58 K, Mass density=176.7 kg/m3, x1 = 0.095): 427.94 ± 8.5 J/K/mol
- molar heat capacity at constant volume (488.68 K, Mass density=176.7 kg/m3, x1 = 0.095): 434.18 ± 8.7 J/K/mol
- molar heat capacity at constant volume (488.82 K, Mass density=339.4 kg/m3, x1 = 0.178): 500.32 ± 10 J/K/mol
- molar heat capacity at constant volume (488.87 K, Mass density=176.7 kg/m3, x1 = 0.095): 431.72 ± 8.6 J/K/mol
- molar heat capacity at constant volume (489.06 K, Mass density=176.7 kg/m3, x1 = 0.095): 425.91 ± 8.5 J/K/mol
- molar heat capacity at constant volume (489.44 K, Mass density=339.4 kg/m3, x1 = 0.178): 498.78 ± 10 J/K/mol
- molar heat capacity at constant volume (490.01 K, Mass density=408.8 kg/m3, x1 = 0.178): 466.06 ± 9.3 J/K/mol
- molar heat capacity at constant volume (490.58 K, Mass density=398.3 kg/m3, x1 = 0.095): 337.25 ± 6.7 J/K/mol
- molar heat capacity at constant volume (491.54 K, Mass density=281.4 kg/m3, x1 = 0.095): 350.21 ± 7 J/K/mol
- molar heat capacity at constant volume (493.44 K, Mass density=339.4 kg/m3, x1 = 0.178): 492.82 ± 9.8 J/K/mol
- molar heat capacity at constant volume (493.44 K, Mass density=375 kg/m3, x1 = 0.178): 478.92 ± 9.6 J/K/mol
- molar heat capacity at constant volume (493.63 K, Mass density=320.2 kg/m3, x1 = 0.095): 344.98 ± 6.9 J/K/mol
- molar heat capacity at constant volume (494.29 K, Mass density=339.4 kg/m3, x1 = 0.178): 493.86 ± 9.9 J/K/mol
- molar heat capacity at constant volume (494.39 K, Mass density=375 kg/m3, x1 = 0.178): 481.74 ± 9.7 J/K/mol
- molar heat capacity at constant volume (494.76 K, Mass density=87 kg/m3, x1 = 0.095): 750.57 ± 15 J/K/mol
- molar heat capacity at constant volume (494.95 K, Mass density=374.7 kg/m3, x1 = 0.095): 342.85 ± 6.9 J/K/mol
- molar heat capacity at constant volume (495.33 K, Mass density=176.7 kg/m3, x1 = 0.095): 423.94 ± 8.5 J/K/mol
- molar heat capacity at constant volume (495.52 K, Mass density=241 kg/m3, x1 = 0.095): 368.51 ± 7.4 J/K/mol
- molar heat capacity at constant volume (495.52 K, Mass density=408.8 kg/m3, x1 = 0.178): 468.89 ± 9.3 J/K/mol
- molar heat capacity at constant volume (496.56 K, Mass density=131.5 kg/m3, x1 = 0.095): 548.39 ± 11 J/K/mol
- molar heat capacity at constant volume (497.42 K, Mass density=310.8 kg/m3, x1 = 0.178): 516 ± 10 J/K/mol
- molar heat capacity at constant volume (497.51 K, Mass density=310.8 kg/m3, x1 = 0.178): 512.93 ± 10 J/K/mol
- molar heat capacity at constant volume (497.6 K, Mass density=310.8 kg/m3, x1 = 0.178): 514.22 ± 10 J/K/mol
- molar heat capacity at constant volume (499.87 K, Mass density=110.8 kg/m3, x1 = 0.095): 615.07 ± 12 J/K/mol
- molar heat capacity at constant volume (499.87 K, Mass density=155 kg/m3, x1 = 0.095): 463.68 ± 9.3 J/K/mol
- molar heat capacity at constant volume (500.06 K, Mass density=375 kg/m3, x1 = 0.178): 479.47 ± 9.6 J/K/mol
- molar heat capacity at constant volume (500.9 K, Mass density=310.8 kg/m3, x1 = 0.178): 505.18 ± 10 J/K/mol
- molar heat capacity at constant volume (500.9 K, Mass density=398.3 kg/m3, x1 = 0.095): 339.7 ± 6.8 J/K/mol
- molar heat capacity at constant volume (501.75 K, Mass density=310.8 kg/m3, x1 = 0.178): 507.27 ± 10 J/K/mol
- molar heat capacity at constant volume (502.88 K, Mass density=408.8 kg/m3, x1 = 0.178): 473.26 ± 9.5 J/K/mol
- molar heat capacity at constant volume (503.07 K, Mass density=339.4 kg/m3, x1 = 0.178): 489.49 ± 9.8 J/K/mol
- molar heat capacity at constant volume (503.82 K, Mass density=339.4 kg/m3, x1 = 0.178): 492.32 ± 9.8 J/K/mol
- molar heat capacity at constant volume (504.88 K, Mass density=284.3 kg/m3, x1 = 0.178): 533.78 ± 11 J/K/mol
- molar heat capacity at constant volume (505.5 K, Mass density=201.8 kg/m3, x1 = 0.095): 397.32 ± 7.9 J/K/mol
- molar heat capacity at constant volume (505.96 K, Mass density=284.3 kg/m3, x1 = 0.178): 524.24 ± 11 J/K/mol
- molar heat capacity at constant volume (506.25 K, Mass density=374.7 kg/m3, x1 = 0.095): 343.97 ± 6.9 J/K/mol
- molar heat capacity at constant volume (506.32 K, Mass density=284.3 kg/m3, x1 = 0.178): 521.66 ± 10 J/K/mol
- molar heat capacity at constant volume (507.56 K, Mass density=320.2 kg/m3, x1 = 0.095): 346.42 ± 6.9 J/K/mol
- molar heat capacity at constant volume (508.72 K, Mass density=284.3 kg/m3, x1 = 0.178): 513.42 ± 10 J/K/mol
- molar heat capacity at constant volume (509.65 K, Mass density=284.3 kg/m3, x1 = 0.178): 513.42 ± 10 J/K/mol
- molar heat capacity at constant volume (512.22 K, Mass density=339.4 kg/m3, x1 = 0.178): 488.69 ± 9.8 J/K/mol
- molar heat capacity at constant volume (512.4 K, Mass density=241 kg/m3, x1 = 0.095): 370.11 ± 7.4 J/K/mol
- molar heat capacity at constant volume (512.96 K, Mass density=339.4 kg/m3, x1 = 0.178): 489.49 ± 9.8 J/K/mol
- molar heat capacity at constant volume (513.52 K, Mass density=155 kg/m3, x1 = 0.095): 469.92 ± 9.4 J/K/mol
- molar heat capacity at constant volume (513.7 K, Mass density=176.7 kg/m3, x1 = 0.095): 436.2 ± 8.7 J/K/mol
- molar heat capacity at constant volume (514.1 K, Mass density=110.8 kg/m3, x1 = 0.095): 628.94 ± 13 J/K/mol
- molar heat capacity at constant volume (515.19 K, Mass density=281.4 kg/m3, x1 = 0.095): 353.36 ± 7 J/K/mol
